Source: ChEMBL document CHEMBL3872204, “Synthesis and immunopotentiating activity of novel isoxazoline functionalized coumarins” (Eur J Med Chem, 2016)
The source made the active and inactive calls. No cut-off for these calls is given here.

How the values were obtained:
Splenic lymphocyte [1] = experiment: Immunopotentiating activity in splenic lymphocytes (unknown origin) assessed as effect on proliferation by measuring cell viability at 10 ug/ml pretreated followed by incubation of lymphocytes with ConA for 48 hrs by MTT assay; type: functional, cell-based
Splenic lymphocyte [2] = experiment: Immunopotentiating activity in splenic lymphocytes (unknown origin) assessed as effect on proliferation by measuring cell viability at 10 ug/ml pretreated followed by incubation of lymphocytes with LPS for 48 hrs by MTT assay; type: functional, cell-based
Splenic lymphocyte [3] = experiment: Immunopotentiating activity in splenic lymphocytes (unknown origin) assessed as effect on proliferation by measuring cell viability at 0.1 to 1 ug/ml pretreated followed by incubation of lymphocytes with ConA for 48 hrs by MTT assay; type: functional, cell-based
Splenic lymphocyte [4] = experiment: Immunopotentiating activity in splenic lymphocytes (unknown origin) assessed as effect on proliferation by measuring cell viability at 0.1 to 1 ug/ml pretreated followed by incubation of lymphocytes with LPS for 48 hrs by MTT assay; type: functional, cell-based
Mus musculus [5] = experiment: Immunopotentiating activity in sheep RBC-immunized BALB/c mouse assessed as CD4-positive splenic T-cells at 0.001 mg/kg, po for 14 days by flow cytometry (reference value: 20.7 +/- 0.9%); type: functional
Mus musculus [6] = experiment: Immunopotentiating activity in sheep RBC-immunized BALB/c mouse assessed as increase in isolated splenic T-cell proliferation administered orally for 14 days followed by incubation of isolated splenocytes with LPS for 72 hrs by MTT assay; type: functional
Mus musculus [7] = experiment: Immunopotentiating activity in sheep RBC-immunized BALB/c mouse assessed as increase in IL4 production in splenocytes administered orally for 14 days followed by incubation with ConA for 48 hrs by ELISA; type: functional, cell-based
Mus musculus [8] = experiment: Immunopotentiating activity in sheep RBC-immunized BALB/c mouse assessed as CD8-positive T-cell content in spleen at 0.1 mg/kg, po for 14 days by flow cytometry (reference value: 1.47 +/- 0.04 10^7No_unit); type: functional
Mus musculus [9] = experiment: Immunopotentiating activity in sheep RBC-immunized BALB/c mouse assessed as increase in isolated splenic T-cell proliferation administered orally for 14 days followed by incubation of isolated splenocytes with ConA for 72 hrs by MTT assay; type: functional
Mus musculus [10] = experiment: Immunopotentiating activity in sheep RBC-immunized BALB/c mouse assessed as CD4-positive splenic T-cells at 0.1 mg/kg, po for 14 days by flow cytometry (reference value: 20.7 +/- 0.9%); type: functional
Mus musculus [11] = experiment: Immunopotentiating activity in sheep RBC-immunized BALB/c mouse assessed as increase in isolated splenic B-cell proliferation administered orally for 14 days followed by incubation of isolated splenocytes with LPS for 72 hrs by MTT assay; type: functional
Mus musculus [12] = experiment: Immunopotentiating activity in sheep RBC-immunized BALB/c mouse assessed as ratio of CD4-positive splenic T-cells to CD8-positive splenic T-cells at 0.1 mg/kg, po for 14 days by flow cytometry (RVB = 1.56 +/- 0.09); type: functional
Mus musculus [13] = experiment: Immunopotentiating activity in sheep RBC-immunized BALB/c mouse assessed as B-cell activation by measuring IgM antibody titer in serum at 0.1 mg/kg, po for 14 days measured on day 7 post dose by hemagglutinination technique; type: functional, organism-based
Mus musculus [14] = experiment: Immunopotentiating activity in sheep RBC-immunized BALB/c mouse assessed as increase in isolated splenic […] proliferation administered orally for 14 days followed by incubation of isolated splenocytes with ConA for 72 hrs by MTT assay; type: functional
Mus musculus [15] = experiment: Immunopotentiating activity in sheep RBC-immunized BALB/c mouse assessed as ratio of CD4-positive splenic T-cells to CD8-positive splenic T-cells at 0.001 mg/kg, po for 14 days by flow cytometry (RVB = 1.56 +/- 0.09); type: functional
Splenic lymphocyte [16] = experiment: Immunopotentiating activity in splenic lymphocytes (unknown origin) assessed as effect on proliferation by measuring cell viability pretreated followed by incubation of lymphocytes with LPS for 48 hrs by MTT assay; type: functional, cell-based
Mus musculus [17] = experiment: Immunopotentiating activity in sheep RBC-immunized BALB/c mouse assessed as CD8-positive T-cell content in spleen at 0.001 mg/kg, po for 14 days by flow cytometry (reference value: 1.47 +/- 0.04 10^7No_unit); type: functional
Mus musculus [18] = experiment: Immunopotentiating activity in sheep RBC-immunized BALB/c mouse assessed as B-cell activation by measuring IgG antibody titer in serum at 0.1 mg/kg, po for 14 days by hemagglutinination technique; type: functional, organism-based
Mus musculus [19] = experiment: Immunopotentiating activity in sheep RBC-immunized BALB/c mouse assessed as CD8-positive splenic T-cells at 0.1 mg/kg, po for 14 days by flow cytometry (reference value: 13.3 +/- 0.34%); type: functional
Splenic lymphocyte [20] = experiment: Immunopotentiating activity in splenic lymphocytes (unknown origin) assessed as effect on proliferation by measuring cell viability pretreated followed by incubation of lymphocytes with ConA for 48 hrs by MTT assay; type: functional, cell-based
Mus musculus [21] = experiment: Immunopotentiating activity in sheep RBC-immunized BALB/c mouse assessed as CD4-positive T-cell content in spleen at 0.01 mg/kg, po for 14 days by flow cytometry (reference value: 2.7 +/- 0.12 10^7No_unit); type: functional
Mus musculus [22] = experiment: Immunopotentiating activity in sheep RBC-immunized BALB/c mouse assessed as CD8-positive T-cell content in spleen at 0.01 mg/kg, po for 14 days by flow cytometry (reference value: 1.47 +/- 0.04 10^7No_unit); type: functional
Mus musculus [23] = experiment: Immunopotentiating activity in sheep RBC-immunized BALB/c mouse assessed as CD4-positive T-cell content in spleen at 0.1 mg/kg, po for 14 days by flow cytometry (reference value: 2.7 +/- 0.12 10^7No_unit); type: functional
Mus musculus [24] = experiment: Immunopotentiating activity in sheep RBC-immunized BALB/c mouse assessed as B-cell activation by measuring IgM antibody titer in serum at 0.01 mg/kg, po for 14 days measured on day 7 post dose by hemagglutinination technique; type: functional, organism-based
Mus musculus [25] = experiment: Immunopotentiating activity in sheep RBC-immunized BALB/c mouse assessed as CD8-positive splenic T-cells at 0.001 mg/kg, po for 14 days by flow cytometry (reference value: 13.3 +/- 0.34%); type: functional
Mus musculus [26] = experiment: Immunopotentiating activity in sheep RBC-immunized BALB/c mouse assessed as B-cell activation by measuring IgG antibody titer in serum at 0.01 mg/kg, po for 14 days by hemagglutinination technique; type: functional, organism-based
Mus musculus [27] = experiment: Immunopotentiating activity in sheep RBC-immunized BALB/c mouse assessed as B-cell activation by measuring IgG antibody titer in serum at 0.001 mg/kg, po for 14 days by hemagglutinination technique; type: functional, organism-based
Mus musculus [28] = experiment: Immunopotentiating activity in sheep RBC-immunized BALB/c mouse assessed as ratio of CD4-positive splenic T-cells to CD8-positive splenic T-cells at 0.01 mg/kg, po for 14 days by flow cytometry (RVB = 1.56 +/- 0.09); type: functional
Mus musculus [29] = experiment: Immunopotentiating activity in sheep RBC-immunized BALB/c mouse assessed as increase in macrophage production by measuring increase in NO production administered orally for 14 days followed by incubation with LPS for 48 hrs by Griess assay; type: functional
Mus musculus [30] = experiment: Immunopotentiating activity in sheep RBC-immunized BALB/c mouse assessed as CD4-positive splenic T-cells at 0.01 mg/kg, po for 14 days by flow cytometry (reference value: 20.7 +/- 0.9%); type: functional
Mus musculus [31] = species: Mus musculus; experiment: Cytotoxicity in BALB/c mouse splenocytes at 100 ug/ml measured after 72 hrs by MTT assay; type: toxicity; conditions: splenocyte
Mus musculus [32] = experiment: Immunopotentiating activity in sheep RBC-immunized BALB/c mouse assessed as B-cell activation by measuring IgM antibody titer in serum at 0.001 mg/kg, po for 14 days measured on day 7 post dose by hemagglutinination technique; type: functional, organism-based
Mus musculus [33] = experiment: Immunopotentiating activity in sheep RBC-immunized BALB/c mouse assessed as increase in interferon-gamma production in splenocytes administered orally for 14 days followed by incubation with ConA for 48 hrs by ELISA; type: functional, cell-based
Mus musculus [34] = experiment: Immunopotentiating activity in sheep RBC-immunized BALB/c mouse assessed as CD8-positive splenic T-cells at 0.01 mg/kg, po for 14 days by flow cytometry (reference value: 13.3 +/- 0.34%); type: functional
Mus musculus [35] = experiment: Immunopotentiating activity in sheep RBC-immunized BALB/c mouse assessed as increase in delayed-type hypersensitivity response by measuring left hind foot pad thickness at 0.001 mg/kg, po qd administered 2 hrs post immunization for 7 days measured 24 to 48 hrs post SRBC challenge by spheromicrometer method; type: functional, organism-based
Mus musculus [36] = experiment: Immunopotentiating activity in sheep RBC-immunized BALB/c mouse assessed as CD4-positive T-cell content in spleen at 0.001 mg/kg, po for 14 days by flow cytometry (reference value: 2.7 +/- 0.12 10^7No_unit); type: functional
Mus musculus [37] = experiment: Immunopotentiating activity in sheep RBC-immunized BALB/c mouse assessed as increase in IL2 production in splenocytes administered orally for 14 days followed by incubation with ConA for 48 hrs by ELISA; type: functional, cell-based

O=c1ccc2ccc(OCC3CC(c4cccc5ccccc45)=NO3)cc2o1 (stereo not drawn)
Activity (Splenic lymphocyte [1]): Active
Activity (Splenic lymphocyte [2]): Active
Activity (Splenic lymphocyte [3]): Active
Activity (Splenic lymphocyte [4]): Active

O=c1ccc2ccc(OCC3CC(c4ccc(F)cc4)=NO3)cc2o1 (stereo not drawn)
Activity (Splenic lymphocyte [1]): Active
Activity (Splenic lymphocyte [2]): Active
Activity (Splenic lymphocyte [3]): Active
Activity (Splenic lymphocyte [4]): Active

COc1ccc(C2=NOC(COc3ccc4ccc(=O)oc4c3)C2)cc1 (stereo not drawn)
Activity (Mus musculus [5]): 30.3%
Activity (Mus musculus [6]): Dose-dependent effect
Activity (Mus musculus [7]): Dose-dependent effect
Activity (Mus musculus [8]): 1.48 ×10⁷ No_unit
Activity (Mus musculus [9]): Dose-dependent effect
Activity (Mus musculus [10]): 40.2%
Activity (Mus musculus [11]): Dose-dependent effect
Ratio (Mus musculus [12]): 1.86
Activity (Mus musculus [13]): Active
Activity (Mus musculus [14]): Dose-dependent effect
Ratio (Mus musculus [15]): 1.32
Activity (Splenic lymphocyte [16]): Dose-dependent effect
Activity (Mus musculus [17]): 1.26 ×10⁷ No_unit
Activity (Mus musculus [18]): Active
Activity (Mus musculus [19]): 21.6%
Activity (Splenic lymphocyte [20]): Dose-dependent effect
Activity (Mus musculus [21]): 1.61 ×10⁷ No_unit
Activity (Mus musculus [22]): 1.35 ×10⁷ No_unit
Activity (Mus musculus [23]): 1.85 ×10⁷ No_unit
Activity (Mus musculus [24]): Active
Activity (Mus musculus [25]): 16.4%
Activity (Mus musculus [26]): Active
Activity (Mus musculus [27]): Active
Ratio (Mus musculus [28]): 1.72
Activity (Mus musculus [29]): Dose-dependent effect
Activity (Mus musculus [30]): 34.2%
Activity (Mus musculus [31]): Non-Toxic
Activity (Mus musculus [32]): Active
Activity (Mus musculus [33]): Dose-dependent effect
Activity (Mus musculus [34]): 19.8%
Activity (Mus musculus [35]): Active
Activity (Mus musculus [36]): 1.23 ×10⁷ No_unit
Activity (Mus musculus [37]): Dose-dependent effect

O=c1ccc2ccc(O)cc2o1
Activity (Splenic lymphocyte [1]): Active
Activity (Splenic lymphocyte [2]): Active
Activity (Splenic lymphocyte [3]): Active
Activity (Splenic lymphocyte [4]): Active

O=c1ccc2ccc(OCC3CC(c4ccc([N+](=O)[O-])cc4)=NO3)cc2o1 (stereo not drawn)
Activity (Splenic lymphocyte [1]): Active
Activity (Splenic lymphocyte [2]): Active
Activity (Splenic lymphocyte [3]): Active
Activity (Splenic lymphocyte [4]): Active

COc1cccc(C2=NOC(COc3ccc4ccc(=O)oc4c3)C2)c1 (stereo not drawn)
Activity (Splenic lymphocyte [16]): Dose-dependent effect
Activity (Splenic lymphocyte [20]): Dose-dependent effect

Cc1ccccc1C1=NOC(COc2ccc3ccc(=O)oc3c2)C1 (stereo not drawn)
Activity (Splenic lymphocyte [16]): Dose-dependent effect
Activity (Splenic lymphocyte [20]): Dose-dependent effect

Cc1ccc(C2=NOC(COc3ccc4ccc(=O)oc4c3)C2)cc1 (stereo not drawn)
Activity (Splenic lymphocyte [16]): Dose-dependent effect
Activity (Splenic lymphocyte [20]): Dose-dependent effect

O=c1ccc2ccc(OCC3CC(c4ccc(Cl)cc4)=NO3)cc2o1 (stereo not drawn)
Activity (Splenic lymphocyte [1]): Active
Activity (Splenic lymphocyte [2]): Active
Activity (Splenic lymphocyte [3]): Active
Activity (Splenic lymphocyte [4]): Active

O=c1ccc2ccc(OCC3CC(c4ccc(Br)cc4)=NO3)cc2o1 (stereo not drawn)
Activity (Splenic lymphocyte [1]): Active
Activity (Splenic lymphocyte [2]): Active
Activity (Splenic lymphocyte [3]): Active
Activity (Splenic lymphocyte [4]): Active
